The source made the active and inactive calls. How the calls were made is not given here.
What follows are molecules tested against Prostaglandin E2 receptor EP2 subtype (Homo sapiens) (UniProt P43116) (assay: EP2 receptor modulators, dose response, cell-based, human EP2, PGE2 EC50 shift (AID 1421)). Details: EP2-expressing cells, PGE2 EC50 shift by compound.
Chain of Prostaglandin E2 receptor EP2 subtype (Homo sapiens) (P43116 whole entry, looked up): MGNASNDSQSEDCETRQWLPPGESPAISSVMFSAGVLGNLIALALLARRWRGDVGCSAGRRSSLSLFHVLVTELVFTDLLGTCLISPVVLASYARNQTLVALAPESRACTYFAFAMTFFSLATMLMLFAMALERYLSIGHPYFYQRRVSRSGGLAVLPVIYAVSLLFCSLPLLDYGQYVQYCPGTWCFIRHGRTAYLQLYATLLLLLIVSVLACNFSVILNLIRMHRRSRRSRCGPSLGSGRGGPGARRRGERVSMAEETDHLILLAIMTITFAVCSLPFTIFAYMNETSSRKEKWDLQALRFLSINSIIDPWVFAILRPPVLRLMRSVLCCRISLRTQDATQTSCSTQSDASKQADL

SMILES | outcome
CC(C)OC(=O)CSc1nc(Cc2ccccc2)nc2ccccc12 | active
COc1ncnc2c1oc1nc(CC(C)C)c3c(c12)CCCC3 | active
CCOC(=O)C(C)Sc1nc(-c2ccccc2)nc2ccccc12 (stereo not given) | active
Fc1ccc(Oc2nc(-c3ccccc3)nnc2C(F)(F)F)cc1 | active
COc1ccc(-c2cc(-c3ccccc3)nc(N3CCCC3)n2)cc1OC | active
O=C(Nc1ccccc1N1CCCCC1)c1cnccn1 | active
CCOC(=O)c1c(NC(=O)CN2CCCCC2)sc(C)c1C | active
OC(Cc1ccccc1)(Cc1ccccc1)c1ccccc1 | active
CCOC(=O)C1CCN(c2c(-c3ccccc3)c3cc(Cl)ccc3[nH]c2=O)CC1 | active
Cc1ccc(C)c(NC(=S)N(Cc2ccco2)C(C)c2cccs2)c1 (stereo not given) | active
O=C(O)c1ccc(-c2nc(-c3cccc(C(F)(F)F)c3)cs2)cc1 | active
Cc1ccc(C(=O)Nc2ccccc2N2CCCCC2)cc1[N+](=O)[O-] | active
CCOc1cc(-c2noc(-c3ccncc3)n2)cc(Br)c1OC | active

Same assay, conditions: EP2-expressing cells, PGE2 EC50 shift by compound; measured here: PGE2 EC50 at 6.7 uM compound

SMILES | PGE2 EC50 with compound [nM]
COc1ccc(C2CC(c3cccs3)=NN2C(=O)c2ccc(Br)o2)cc1 (stereo not given) | 1.25
CC(=O)c1cc(C#N)c(SCc2ccccc2)nc1C | 0.83
CCOC(=O)c1c(-c2ccc(C)cc2)csc1NC(=O)c1ccc(N2C(=O)CCC2=O)cc1 | 1.5
Nc1c(C(=O)Nc2ccccc2F)sc2nc(Cc3ccccc3)cc(C(F)(F)F)c12 | 0.62
Cc1cnn(-c2nc(-c3ccccc3)cc(-c3ccccc3)n2)c1 | 0.95
O=C(c1ccco1)N1N=C(c2ccc(Br)cc2)CC1(O)C(F)(F)F (stereo not given) | 0.84
COc1ccc(CN2C(=O)CN=C2Nc2cc(C)ccc2C)cc1 | 1.04
COc1ccc(OC)c(-c2cnc(OC(C)(C)C)nc2OC(C)(C)C)c1 | 1.35
Cn1c(/C=C/N(Cc2ccccc2)c2ccccc2)c([N+](=O)[O-])c(=O)n(C)c1=O | 1.21
N#Cc1c(-c2c(Cl)cccc2Cl)noc1/C=C/Nc1ccc(C(=O)O)cc1 | 0.7
CCCC1=C(C(=O)OCC)C(c2cccs2)C(C#N)=C(N)O1 (stereo not given) | 0.82
CCN(CC)c1nc(C#N)nc(N(CC)CC)n1 | 0.95
CCOC(=O)n1c(=O)n(Cc2ccc(Cl)c(Cl)c2)c2ccccc21 | 0.9
O=c1c2ccccc2c(=O)n(Cc2ccccc2)n1Cc1ccccc1 | 1.16
CCCCOc1c(Br)cc(/C=N/O)cc1OCC | 0.93
C(=N\N1CCN(C2c3ccccc3-c3ccccc32)CC1)/c1cccnc1 | 1.54
COc1ccc(-n2c(COc3cccc4ccccc34)nnc2SCC(=O)NCc2ccco2)cc1 | 1.07
Cc1ccc(CSc2nc3ccccc3cc2C=O)cc1 | 0.73
CCOC(=O)c1c(C)nc2ccccc2c1-c1ccccc1 | 1.31
Clc1ccc(Cn2c(/C=C/c3ccco3)nc3ccccc32)cc1 | 1.38
CC(C)OC(=O)CSc1nc(Cc2ccccc2)nc2ccccc12 | 1.14
Cc1ccc2c(c1)N(Cc1cccc(Cl)c1)C(=O)c1cccnc1O2 | 0.95
Cc1ccccc1S(=O)(=O)c1c(C)cc(C)n(C(C)C)c1=O | 0.83
CCCCN1C=C(C(=O)OC)C(c2ccccc2Cl)C(C(=O)OC)=C1 | 2.72
Cc1sc(NC(=O)Cc2ccc3c(c2)OCO3)nc1-c1ccc2c(c1)CCN2C(=O)c1cccc(F)c1 | 0.97
COC(=O)c1c(NC(=S)NN2CCOCC2)sc2c1CCCC2 | 0.9

SMILES | PGE2 EC50 with compound [nM]
COc1ccc(-c2noc(-c3ccccc3-c3ccccc3)n2)cc1OC | 0.31
CCn1c2ccccc2c2cc(Nc3cc(C)nc4ncnn34)ccc21 | 2.83
O=[N+]([O-])c1ccc(Cl)c2c1C1C=CCC1C(c1ccccn1)N2 (stereo not given) | 0.69
COc1ncnc2c1oc1nc(CC(C)C)c3c(c12)CCCC3 | 0.91
COc1ccccc1CN(C)CC(=O)Nc1ccccc1-c1ccccc1 | 1.43
C=C(C)Cn1c(C)cc(C)c(S(=O)(=O)c2ccc(C)cc2)c1=O | 1.04
CC1(C)Cc2c(C#N)c(N3CCCC3)nc(-c3ccco3)c2CO1 | 2.33
CN(Cc1cccs1)c1nc(-c2cccnc2)nc2ccccc12 | 1.07
Cc1c(C(=O)Nc2cccc3cccnc23)oc2ccccc12 | 0.72
Oc1ccc(/C=N/N2CCN(C3c4ccccc4-c4ccccc43)CC2)c(O)c1 | 2.52
c1ccc(-c2noc(-c3ccccc3-c3ccccc3)n2)cc1 | 0.84
COc1ccc(-n2c(CCc3ccccc3)nnc2SCC(=O)c2ccccc2)cc1 | 1.57
Cc1nc2c(-c3ccccc3)c(C)nn2c(C)c1CCC(=O)N1CCOCC1 | 1.09
O=C(NCc1ccco1)c1ccc(=O)[nH]n1 | 1.06
Cc1cccc(OCCCC(=O)N2CCCc3ccccc32)c1C | 0.71
Cc1ccc(S(=O)(=O)c2c(C)cc(C)nc2N2CCCCC2)cc1 | 1.31
Cc1cc(C)c(N=C2CCCN2Cc2ccccc2)c(C#N)c1 | 1.39
Cc1ccc2nc(SCC(=O)NCc3ccco3)c(C)cc2c1 | 0.76
CCOC(=O)C(C)Sc1nc(-c2ccccc2)nc2ccccc12 (stereo not given) | 0.92
CC(=O)N1Cc2ccccc2C(C)CC12CCCCC2 (stereo not given) | 0.93
CCOC(=O)c1c(-c2ccc(-c3ccccc3)cc2)csc1NC(=O)CCN1CCOCC1 | 1.34
CCc1nnc2n1N=C(c1ccc(-c3cc(Cl)ccc3Cl)o1)CS2 | 0.89
Cc1ccc2cccc(NC(=O)c3ccc(Br)o3)c2n1 | 0.83
O=C(c1cn(Cc2ccccc2)c2ccccc12)C1CC1 | 2.61
Cc1ccc(C(=O)c2cnc3ccccc3c2-c2ccccc2)cc1 | 0.64
Cc1cccc(C)c1OCc1nnc(SCC(=O)Nc2nccs2)n1-c1ccccc1 | 1.01

SMILES | PGE2 EC50 with compound [nM]
C=CCOc1ccc2c(c1)C(=NO)c1cc(OCC=C)ccc1-2 | 0.62
O=S(=O)(c1ccc(F)c(Cl)c1)N1CCCC1 | 1.02
Fc1ccc(Oc2nc(-c3ccccc3)nnc2C(F)(F)F)cc1 | 0.66
CCOC(=O)c1c(NC(=O)Cn2nnc3ccccc32)sc2c1CCC(C)C2 (stereo not given) | 1.14
CCOc1ccc2cc(C#N)c(SCC(=O)NC(C)CC)nc2c1 (stereo not given) | 1.36
CCOC(=O)c1c(NC(=O)CSc2nnc(N)s2)sc(C)c1-c1ccc(C)cc1 | 0.48
COc1ccc(-c2cc(-c3ccccc3)nc(N3CCCC3)n2)cc1OC | 1.12
Cc1onc(-c2ccccc2Cl)c1-c1nc(-c2ccncc2)no1 | 0.83
CC1CCc2cc(F)cc3c(O)c(C(=O)NCc4ccco4)c(=O)n1c23 (stereo not given) | 0.56
C=CCC(=O)OCCCCCCOc1ccc(C(=O)O)cc1 | 0.58
CCOc1nc(-c2ccccc2O)nc2ccccc12 | 1.1
Clc1ccc(Cl)c(Nc2ccnc(SCc3ccccc3)n2)c1 | 0.64
COC(=O)c1c(NC(NC(=O)C(C)C)C(Cl)(Cl)Cl)sc2c1CCCC2 (stereo not given) | 1
CCC(C)(C(=O)NC1CCCCC1)N(C(=O)C1CCC(=O)N1)c1ccccc1 (stereo not given) | 1.17
CN(C)c1ncc(S(=O)(=O)c2ccc(Cl)cc2)c(-c2ccccc2)n1 | 1.08
CCc1nc2c(cnn2-c2ccc(Cl)cc2)c(=O)n1-c1ccc(OC)cc1 | 0.85
C=CCN1C(=O)N(/C=C/C)c2cccc3cccc1c23 | 2.79
O=C(CNCc1ccccc1Cl)Nc1ccccc1N1CCCCC1 | 0.64
CCCOC(=O)c1ccc(NC(=O)c2cn(CC)c3nc(C)ccc3c2=O)cc1 | 1.57
CCOC(=O)c1cnn(-c2nc(-c3ccc(F)cc3)cs2)c1C(F)(F)F | 1.04
O=C(Nc1ccccc1N1CCCCC1)c1cnccn1 | 0.93
Cc1cc(C(=O)CSc2nc3ccccc3c(=O)n2C)c(C)n1Cc1ccc2c(c1)OCO2 | 3.33
CCOC(=O)c1c(NC(=O)CSc2nnnn2CC)sc(C)c1C | 0.81
CCOC(=O)c1c(NC(=O)CN2CCCCC2)sc(C)c1C | 0.89
CCCn1c(SCC(=O)Nc2sc(C)c(C)c2C(=O)OCC)nc2c1c(=O)n(C)c(=O)n2C | 1.35
O=C(O)CCCCCCCCCCCc1ccccc1 | 0.88

SMILES | PGE2 EC50 with compound [nM]
Cc1cc(SC(C)C(=O)O)nc2ccccc12 (stereo not given) | 1.18
Cc1noc(C)c1CSc1nc2ccccc2c(=O)n1-c1ccc(F)cc1F | 1.09
OC(Cc1ccccc1)(Cc1ccccc1)c1ccccc1 | 1.02
O=C1C2C(c3ccccc3)C=CC(c3ccccc3)C2C(=O)N1c1ccncc1 (stereo not given) | 0.65
CCOC(=O)C1CCN(c2c(-c3ccccc3)c3cc(Cl)ccc3[nH]c2=O)CC1 | 1.03
S=c1[nH]nc(-c2ccc3ccccc3n2)n1Cc1ccccc1 | 0.91
O=C(CSc1ncnc2c1oc1ccccc12)Nc1cccc(F)c1 | 3.15
CCOC(=O)C1=NN(c2ccc(C)cc2)C2(S1)SC(C(C)=O)=C(C)N2c1ccccc1 (stereo not given) | 0.31
CC(=O)Oc1c2c(c3c(c1CC=C(C)C)O[C@]14C(=C[C@@H]5CC1C(C)(C)OC4(C/C=C(\C)C(=O)O)C5=O)C3=O)OC(C)(CCC=C(C)C)C=C2 (stereo not given in full) | 0.89
O=C1CC(O)(c2ccccc2)C(c2ccccc2)=C1c1ccccc1 (stereo not given) | 0.87
Cc1ccc(C)c(NC(=S)N(Cc2ccco2)C(C)c2cccs2)c1 (stereo not given) | 0.7
O=C(O)c1ccc(-c2nc(-c3cccc(C(F)(F)F)c3)cs2)cc1 | 1.19
c1ccc(-c2noc(-c3cccc4ccccc34)n2)cc1 | 1.18
CCOC(=O)c1[nH]c2ccc(OC)cc2c1NS(=O)(=O)c1ccc(Cl)s1 | 2.87
Cc1cc(C)c2c(n1)sc1c(=O)n(Cc3ccccc3Cl)nnc12 | 0.92
CCOC(=O)c1sc(NC(=O)CCN2CC(C)OC(C)C2)c(C(=O)OCC)c1C (stereo not given) | 1.11
Cc1ccc(C(=O)Nc2ccccc2N2CCCCC2)cc1[N+](=O)[O-] | 0.66
Cn1c(=O)[nH]c(=O)c2c1nc(CN1CCN(c3cccc(Cl)c3)CC1)n2Cc1ccccc1Cl | 0.94
Cc1cc(C)c(S(=O)(=O)O)c(C)n1 | 1.25
CCOC(=O)c1c(CC(C)C)csc1N | 1.47
CCn1c(=S)[nH]c2c(c1=O)C(C)(C)Cc1ccccc1-2 | 0.76
CCCc1cc(=O)[nH]c(SCC(=O)N2CCC(C(=O)OCC)CC2)n1 | 0.64
CCOc1cc(-c2noc(-c3ccncc3)n2)cc(Br)c1OC | 0.84
COc1ccc(CSC2=C(C#N)C(=O)NC3(CCCCC3)S2)cc1 | 1.3
